In PubChem BioAssay AID248 (DTP/NCI, 2004) one finds T/C data, which are given here for 15 molecules.

This assay relates to L1210 leukemia ip in BDF1 mice, survival T/C. As to the kind of experiment: NCI In Vivo Anticancer Drug Screen. Data for tumor model L1210 Leukemia (intraperitoneal) in B6D2F1 (BDF1) mice. The conditions noted are these: endpoint: mean survival time, higher = longer survival. The method, boiled down:
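Tumor was transplanted into mice, which were then dosed with test compound or vehicle alone. Survival was recorded for each group, and the treated figure was expressed relative to the control figure.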

The mark [1] stands for this setting: dose: 100.0 mg/kg/injection, schedule: Q01DX009 (ip), vehicle: Klucel (hydroxypropylcellulose) (HPC).
Where [2] appears, read: dose: 200.0 mg/kg/injection, schedule: Q01DX009 (ip), vehicle: Klucel (hydroxypropylcellulose) (HPC).
Where [3] appears, read: dose: 400.0 mg/kg/injection, schedule: Q01DX009 (ip), vehicle: Klucel (hydroxypropylcellulose) (HPC).
Setting [4] is: dose: 100.0 mg/kg/injection, schedule: Q01DX001 (ip), vehicle: saline.
Where [5] appears, read: dose: 200.0 mg/kg/injection, schedule: Q01DX001 (ip), vehicle: saline.
Where [6] appears, read: dose: 400.0 mg/kg/injection, schedule: Q01DX001 (ip), vehicle: saline.

Molecules are shown by their SMILES. Several values for one entry are separate records, joined by “and”; a condition that tells them apart may be missing. Equal values may be shown once. Toxic doses and inconclusive results are not listed.

Consider `O=c1ccc(=O)n(-c2ccccc2)[nH]1`, for which the T/C reads like this: under setting [1], 95 % of control; (dose: 100.0 mg/kg/injection, schedule: Q04DX003 (ip), vehicle: Klucel (hydroxypropylcellulose) (HPC)) 92 % of control; under setting [2], 93 % of control; (dose: 200.0 mg/kg/injection, schedule: Q04DX003 (ip), vehicle: Klucel (hydroxypropylcellulose) (HPC)) 106 % of control; (dose: 267.0 mg/kg/injection, schedule: Q04DX003 (ip), vehicle: Klucel (hydroxypropylcellulose) (HPC)) 110 % of control; under setting [3], 95 % of control. The T/C is 104 % of control (dose: 400.0 mg/kg/injection, schedule: Q04DX003 (ip), vehicle: Klucel (hydroxypropylcellulose) (HPC)) and 105 % of control (dose: 600.0 mg/kg/injection, schedule: Q04DX003 (ip), vehicle: Klucel (hydroxypropylcellulose) (HPC)).
In the case of `O=P(Oc1ccc(S(=O)(=O)c2ccccc2)cc1)(Oc1ccc(S(=O)(=O)c2ccccc2)cc1)Oc1ccc(S(=O)(=O)c2ccccc2)cc1`, the T/C (dose: 100.0 mg/kg/injection, schedule: Q01DX009 (ip), vehicle: saline with Tween-80) was 90 % of control; the T/C (dose: 100.0 mg/kg/injection, schedule: Q04DX003 (ip), vehicle: saline with Tween-80) was 90 % of control; the T/C (dose: 200.0 mg/kg/injection, schedule: Q01DX009 (ip), vehicle: saline with Tween-80) was 93 % of control; the T/C (dose: 200.0 mg/kg/injection, schedule: Q04DX003 (ip), vehicle: saline with Tween-80) is 91 % of control; the T/C (dose: 400.0 mg/kg/injection, schedule: Q01DX009 (ip), vehicle: saline with Tween-80) is 91 % of control; the T/C (dose: 400.0 mg/kg/injection, schedule: Q04DX003 (ip), vehicle: saline with Tween-80) was 95 % of control.
Turning to `Cc1ccc2c(C)c3ccc4ccccc4c3c[n+]2c1`, the T/C is, setting by setting: (dose: 3.13 mg/kg/injection, schedule: Q01DX009 (ip), vehicle: saline with Tween-80) 98 % of control; (dose: 6.2 mg/kg/injection, schedule: Q04DX003 (ip), vehicle: Klucel (hydroxypropylcellulose) (HPC)) 111 % of control; (dose: 6.25 mg/kg/injection, schedule: Q01DX009 (ip), vehicle: saline with Tween-80) 107 % of control; (dose: 12.5 mg/kg/injection, schedule: Q01DX009 (ip), vehicle: saline with Tween-80) 107 % of control and 113 % of control; (dose: 12.5 mg/kg/injection, schedule: Q04DX003 (ip), vehicle: Klucel (hydroxypropylcellulose) (HPC)) 104 % of control; (dose: 25.0 mg/kg/injection, schedule: Q04DX003 (ip), vehicle: Klucel (hydroxypropylcellulose) (HPC)) 111 % of control. Moreover, the T/C is 117 % of control (dose: 50.0 mg/kg/injection, schedule: Q04DX003 (ip), vehicle: Klucel (hydroxypropylcellulose) (HPC)); 123 % of control under setting [4]; 104 % of control under setting [5]; 104 % of control under setting [6].
`Cn1c(=O)cc(CC(=O)C(=O)O)c2ccccc21`: the T/C runs as follows: under setting [4], 88 % of control; under setting [5], 93 % of control; under setting [6], 93 % of control.
Consider `O=C(Nc1cccc(F)c1)N(CC(O)c1ccccc1)C1CCCCC1` (centres undefined), for which the T/C under setting [1] was 114 % of control, the T/C under setting [2] is 100 % of control and the T/C under setting [3] was 97 % of control.
Regarding `CC(C)(C)C(=O)C(Br)Br`, the T/C runs as follows: (dose: 25.0 mg/kg/injection, schedule: Q04DX002 (ip), vehicle: Klucel (hydroxypropylcellulose) (HPC)) 101 % of control; (dose: 50.0 mg/kg/injection, schedule: Q04DX002 (ip), vehicle: Klucel (hydroxypropylcellulose) (HPC)) 96 % of control; (dose: 100.0 mg/kg/injection, schedule: Q04DX002 (ip), vehicle: Klucel (hydroxypropylcellulose) (HPC)) 97 % of control and 101 % of control.
As to `O=CC(O)C(O)C(OC1OC(CO)C(OC2OC(CO)C(O)C(O)C2O)C(O)C1O)C(O)CO` (centres undefined), the T/C is 93 % of control (dose: 100.0 mg/kg/injection, schedule: Q04DX003 (ip), vehicle: saline); 93 % of control (dose: 200.0 mg/kg/injection, schedule: Q04DX003 (ip), vehicle: saline); 94 % of control (dose: 400.0 mg/kg/injection, schedule: Q04DX003 (ip), vehicle: saline).
In the case of `CSc1cc(N)nc2n[nH]nc12`, the T/C reads like this: (dose: 100.0 mg/kg/injection, schedule: Q01DX001 (ip), vehicle: Klucel (hydroxypropylcellulose) (HPC)) 97 % of control; (dose: 200.0 mg/kg/injection, schedule: Q01DX001 (ip), vehicle: Klucel (hydroxypropylcellulose) (HPC)) 110 % of control.
With `Cc1ccc2c(c1)C(=O)CCC2`, the T/C is, setting by setting: (dose: 177.0 mg/kg/injection, schedule: Q01DX001 (ip), vehicle: saline) 94 % of control; under setting [5], 95 % of control; (dose: 266.0 mg/kg/injection, schedule: Q01DX001 (ip), vehicle: saline) 94 % of control; under setting [6], 94 % of control and 95 % of control; (dose: 600.0 mg/kg/injection, schedule: Q01DX001 (ip), vehicle: saline) 96 % of control.
Take `O=NN(CCCl)C(=O)NC(CCC(=O)O)C(=O)O` (centres undefined): the T/C by setting is: (dose: 13.0 mg/kg/injection, schedule: Q01DX001 (ip), vehicle: saline with Tween-80) 123 % of control; (dose: 67.0 mg/kg/injection, schedule: Q01DX001 (ip), vehicle: saline with Tween-80) 200 % of control; (dose: 100.0 mg/kg/injection, schedule: Q01DX001 (ip), vehicle: saline with Tween-80) 261 % of control; (dose: 150.0 mg/kg/injection, schedule: Q01DX001 (ip), vehicle: saline with Tween-80) 331 % of control; (dose: 224.0 mg/kg/injection, schedule: Q01DX001 (ip), vehicle: saline with Tween-80) 331 % of control; (dose: 335.0 mg/kg/injection, schedule: Q01DX001 (ip), vehicle: saline with Tween-80) 192 % of control.
In the case of `CC(C)(C)NCCC(=O)c1ccccc1`, the T/C was 98 % of control (dose: 12.5 mg/kg/injection, schedule: Q04DX003 (ip), vehicle: saline); 102 % of control (dose: 25.0 mg/kg/injection, schedule: Q04DX003 (ip), vehicle: saline); 101 % of control (dose: 50.0 mg/kg/injection, schedule: Q04DX003 (ip), vehicle: saline).
For `O=C([S][Pb]([c]1ccccc1)([c]1ccccc1)[c]1ccccc1)c1ccccc1`, the T/C is, setting by setting: (dose: 2.0 mg/kg/injection, schedule: Q01DX009 (ip), vehicle: Klucel (hydroxypropylcellulose) (HPC)) 109 % of control; (dose: 2.0 mg/kg/injection, schedule: Q04DX003 (ip), vehicle: Klucel (hydroxypropylcellulose) (HPC)) 89 % of control; (dose: 4.0 mg/kg/injection, schedule: Q01DX009 (ip), vehicle: Klucel (hydroxypropylcellulose) (HPC)) 123 % of control; (dose: 4.0 mg/kg/injection, schedule: Q04DX003 (ip), vehicle: Klucel (hydroxypropylcellulose) (HPC)) 97 % of control; (dose: 8.0 mg/kg/injection, schedule: Q01DX009 (ip), vehicle: Klucel (hydroxypropylcellulose) (HPC)) 90 % of control; (dose: 8.0 mg/kg/injection, schedule: Q04DX003 (ip), vehicle: Klucel (hydroxypropylcellulose) (HPC)) 94 % of control and 97 % of control. Further, the T/C (dose: 11.0 mg/kg/injection, schedule: Q04DX003 (ip), vehicle: Klucel (hydroxypropylcellulose) (HPC)) is 100 % of control.
In the case of `O=C(NC(=S)Nc1ccccc1)c1cccc(Br)c1`, the T/C was 90 % of control (dose: 75.0 mg/kg/injection, schedule: Q01DX001 (ip), vehicle: carboxymethylcellulose (CMC)); 88 % of control (dose: 150.0 mg/kg/injection, schedule: Q01DX001 (ip), vehicle: carboxymethylcellulose (CMC)); 96 % of control (dose: 300.0 mg/kg/injection, schedule: Q01DX001 (ip), vehicle: carboxymethylcellulose (CMC)).
Take `CCC(C#N)(CC)c1ccccc1`: the T/C reads like this: (dose: 50.0 mg/kg/injection, schedule: Q01DX001 (ip), vehicle: saline) 113 % of control; under setting [4], 107 % of control; under setting [5], 89 % of control; under setting [6], 101 % of control.
In the case of `O=[N+]([O-])c1ccccc1CC1=NCCc2cc3c(cc21)OCO3`, the T/C under setting [4] was 100 % of control, the T/C under setting [5] was 102 % of control and the T/C under setting [6] is 104 % of control.
